# Data published in patent publication US8883834B2, “Methods and compositions for locally increasing body fat” (Topokine Therapeutics, Inc., priority 2012, dated 2014).
# Like-named read-outs stand apart in the source and are kept apart here.
# Experiments:
# C57BL/6J = experiment: Randomized controlled trial in mice, compounds in Lipoderm applied daily to right flank (Example 1); format: in vivo; conditions: for Local increase in subcutaneous fat / asymmetry between flanks: following 24 days of therapy, right flank treated, left flank untreated
# Description: The arms were as follows: vehicle (Lipoderm®), a thiazolidinedione (pioglitazone), harmine, an orexigenic compound (megestrol acetate), and efavirenz. Each compound was combined in the percutaneous Lipoderm® formulation at an equimolar concentration (5 mM). The Lipoderm® vehicle is adapted to deliver the respective compound percutaneously, i.e., across the skin and into subcutaneous fat. The formulations were applied daily to the right flank of each animal, whereas the left flank was used as an untreated control.
# A randomized controlled trial was conducted on C57BL/6J. Male mice approximately six weeks old were prospectively randomized into groups and assigned to the following treatment conditions (n=5 animals per group):
# Animals were shaved and depilated over the flanks at the start of the study.
# Animals were kept in identical conditions and fed ab libitum with a standardized high-fat diet (70% kcal fat). Animals were weighed three times weekly. Following 24 consecutive days of treatment, mice were sacrificed and samples of skin and adjacent fat from the treated flanks are taken for histologic examination.
# Gottingen minipigs = conditions: for Increase over Placebo in subcutaneous fat thickness, MEAN: mean of 24 sites, 42 days
# Description: (§1) A prospective controlled trial was performed in 4 Gottingen minipigs (2 males, 2 females). Hair on the back was clipped. […] An equivalent Vehicle Treatment Area was marked on the left side of the animal, such that the two treatment areas were anatomically equivalent. […] After 42 days of treatment, plasma pharmacokinetics (PK) was assessed on all animals by Liquid Chromatography/Tandem Mass Spectrometry. Necropsy was done and samples of skin, subcutaneous fat, and muscle were collected en bloc from each treatment area in a controlled fashion. […] Table 5 presents the thicknesses of subcutaneous fat on each of six treated and control (vehicle) locations, by animal. […] Table 6 compares plasma PK following percutaneous administration (present study) with plasma PK following oral administration in humans.
# [1] = Plasma pharmacokinetics after percutaneous administration in minipigs (Example 4); conditions: percutaneous versus oral
# Description: as §1
# patient = experiment: Clinical application for augmentation of the buttocks (Example 9); format: in vivo, human; conditions: 10 mg/ml in Lipoderm daily, after 6 months; contemplated
# Description: The following description exemplifies a clinical application of percutaneous administration of an orexigenic pregnane derivative for augmentation of the buttocks. A female or male patient wishes to undergo a buttocks augmentation procedure but is concerned about the risks of surgery. The physician prescribes a daily application of megestrol acetate (for example, 10 mg/ml in Lipoderm®) to the buttocks.
smiles,measurement,setting,value
COc1ccc2c(c1)[nH]c1c(C)nccc12 [Harmine],Local increase in subcutaneous fat / asymmetry between flanks,C57BL/6J,did not exhibit any increase in fat or asymmetry between the two flanks
O=C1Nc2ccc(Cl)cc2[C@@](C#CC2CC2)(C(F)(F)F)O1 [Efavirenz],Local increase in subcutaneous fat / asymmetry between flanks,C57BL/6J,did not exhibit any increase in fat or asymmetry between the two flanks
CN(CCOc1ccc(CC2SC(=O)NC2=O)cc1)c1ccccn1 (centres unmarked) [Rosiglitazone],"Increase over Placebo in subcutaneous fat thickness, MEAN",Gottingen minipigs,48%
same,"Increase over Placebo in subcutaneous fat thickness, MEAN",Gottingen minipigs; listed as rosiglitazone,48%
same,Tolerability,"Gottingen minipigs; minipig, in vivo","well tolerated, with no evidence of skin irritation or other clinical observations"
same,"Peak plasma concentration, lower than for oral (systemic) therapy",[1],about 3400 fold
same,"Plasma exposure, lower than for oral (systemic) therapy",[1],~1300 fold
CC(=O)O[C@]1(C(C)=O)CC[C@H]2[C@@H]3C=C(C)C4=CC(=O)CC[C@]4(C)[C@H]3CC[C@@]21C [Megestrol acetate],Relative skin fold thickness of left and right flanks,C57BL/6J; examined on Day 24,"asymmetric, with thicker skin folds on the treated flanks compared to the untreated flanks"
same,Local increase in subcutaneous fat / asymmetry between flanks,C57BL/6J,exhibited local increases in subcutaneous fat
same,"Thickness of skin fold, right (treated) flank","C57BL/6J; representative mouse, 24 days of treatment, left (untreated) flank about 2 mm",about 4 mm
same,"Buttocks size, clinical appearance",patient,the buttocks appear clinically larger
